PubChem BioAssay (NCI)
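Grown in 96-well plates, cells were treated for 48 hours with each compound at five concentrations. Insufficient inhibition: endpoint recorded as highest concentration tested. Here, GI50 denotes the concentration required for 50% inhibition of growth. At the TGI there is no net growth.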

Columns and labels:
Assay in all cases: growth of human tumour cells (NCI), 48 h
786-0 renal = tested on: 786-0 renal
A498 renal = tested on: A498 renal
A549 NSCLC = tested on: A549 NSCLC
ACHN renal = tested on: ACHN renal
BT-549 breast = tested on: BT-549 breast
CAKI-1 renal = tested on: CAKI-1 renal
CCRF-CEM leukemia = tested on: CCRF-CEM leukemia
COLO 205 colon = tested on: COLO 205 colon
DU-145 prostate = tested on: DU-145 prostate
EKVX NSCLC = tested on: EKVX NSCLC
HCC-2998 colon = tested on: HCC-2998 colon
HCT-116 colon = tested on: HCT-116 colon
HCT-15 colon = tested on: HCT-15 colon
HL-60(TB) leukemia = tested on: HL-60(TB) leukemia
HOP-62 NSCLC = tested on: HOP-62 NSCLC
HOP-92 NSCLC = tested on: HOP-92 NSCLC
HS 578T breast = tested on: HS 578T breast
HT29 colon = tested on: HT29 colon
IGROV1 ovarian = tested on: IGROV1 ovarian
K-562 leukemia = tested on: K-562 leukemia
KM12 colon = tested on: KM12 colon
LOX IMVI melanoma = tested on: LOX IMVI melanoma
M14 melanoma = tested on: M14 melanoma
MALME-3M melanoma = tested on: MALME-3M melanoma
MCF7 breast = tested on: MCF7 breast
MDA-MB-231 breast = tested on: MDA-MB-231 breast
MDA-MB-435 = tested on: MDA-MB-435
MDA-MB-468 breast = tested on: MDA-MB-468 breast
MOLT-4 leukemia = tested on: MOLT-4 leukemia
NCI-H226 lung = tested on: NCI-H226 lung
NCI-H23 lung = tested on: NCI-H23 lung
NCI-H460 lung = tested on: NCI-H460 lung
NCI-H522 lung = tested on: NCI-H522 lung
NCI/ADR-RES ovarian = tested on: NCI/ADR-RES ovarian
OVCAR-3 ovarian = tested on: OVCAR-3 ovarian
OVCAR-4 ovarian = tested on: OVCAR-4 ovarian
OVCAR-5 ovarian = tested on: OVCAR-5 ovarian
OVCAR-8 ovarian = tested on: OVCAR-8 ovarian
PC-3 prostate = tested on: PC-3 prostate
RPMI-8226 leukemia = tested on: RPMI-8226 leukemia
RXF 393 renal = tested on: RXF 393 renal
SF-268 CNS = tested on: SF-268 CNS
SF-295 CNS = tested on: SF-295 CNS
SF-539 CNS = tested on: SF-539 CNS
SK-MEL-2 melanoma = tested on: SK-MEL-2 melanoma
SK-MEL-28 melanoma = tested on: SK-MEL-28 melanoma
SK-MEL-5 melanoma = tested on: SK-MEL-5 melanoma
SK-OV-3 ovarian = tested on: SK-OV-3 ovarian
SN12C renal = tested on: SN12C renal
SNB-19 CNS = tested on: SNB-19 CNS
SNB-75 CNS = tested on: SNB-75 CNS
SR leukemia = tested on: SR leukemia
SW-620 colon = tested on: SW-620 colon
T-47D breast = tested on: T-47D breast
TK-10 renal = tested on: TK-10 renal
U251 CNS = tested on: U251 CNS
UACC-257 melanoma = tested on: UACC-257 melanoma
UACC-62 melanoma = tested on: UACC-62 melanoma
UO-31 renal = tested on: UO-31 renal

## CCN1C(=O)N(CC)C2NNC(Sc3c(C(=O)O)c4ccccc4n(CC(C)C)c3=O)=NC21 (configuration not stated)
786-0 renal
  GI50: 7.45 µM
  TGI: > 100 µM
A498 renal
  GI50: > 100 µM
  TGI: > 100 µM
A549 NSCLC
  GI50: 4.6 µM
  TGI: > 100 µM
ACHN renal
  GI50: 4.73 µM
  TGI: 46.2 µM
BT-549 breast
  GI50: 35.7 µM
  TGI: > 100 µM
CAKI-1 renal
  GI50: 3.1 µM
  TGI: 23.2 µM
CCRF-CEM leukemia
  GI50: 3.54 µM
  TGI: > 100 µM
COLO 205 colon
  GI50: 2.53 µM
  TGI: 6.95 µM
DU-145 prostate
  GI50: 4.49 µM
  TGI: > 100 µM
EKVX NSCLC
  GI50: 3.11 µM
  TGI: > 100 µM
HCC-2998 colon
  GI50: 3.28 µM
  TGI: 16.9 µM
HCT-116 colon
  GI50: 3.18 µM
  TGI: > 100 µM
HCT-15 colon
  GI50: 1.89 µM
  TGI: 18.8 µM
HL-60(TB) leukemia
  GI50: 2.37 µM
  TGI: 12.9 µM
HOP-62 NSCLC
  GI50: 5.42 µM
  TGI: > 100 µM
HOP-92 NSCLC
  GI50: 14.4 µM
  TGI: 64.1 µM
HS 578T breast
  GI50: 2.94 µM
  TGI: 58.8 µM
HT29 colon
  GI50: 2.83 µM
  TGI: 12.5 µM
IGROV1 ovarian
  GI50: 2.54 µM
  TGI: 19.3 µM
K-562 leukemia
  GI50: 2.77 µM
  TGI: > 100 µM
KM12 colon
  GI50: 2930 nM
  TGI: > 100 µM
LOX IMVI melanoma
  GI50: 4.13 µM
  TGI: 20.6 µM
M14 melanoma
  GI50: 4 µM
  TGI: > 100 µM
MALME-3M melanoma
  GI50: 5.23 µM
  TGI: 47.7 µM
MCF7 breast
  GI50: 0.949 µM
  TGI: 21.5 µM
MDA-MB-231 breast
  GI50: 2.51 µM
  TGI: 21.9 µM
MDA-MB-435
  GI50: 0.976 µM
  TGI: 4.19 µM
MDA-MB-468 breast
  GI50: 0.442 µM
  TGI: 3.91 µM
MOLT-4 leukemia
  GI50: 3.66 µM
  TGI: > 100 µM
NCI-H226 lung
  GI50: 3.92 µM
  TGI: 21.1 µM
NCI-H23 lung
  GI50: 3.67 µM
  TGI: 21.4 µM
NCI-H460 lung
  GI50: 3.08 µM
  TGI: 12.2 µM
NCI-H522 lung
  GI50: 1.88 µM
  TGI: 5.97 µM
NCI/ADR-RES ovarian
  GI50: 1.99 µM
  TGI: 4.89 µM
OVCAR-3 ovarian
  GI50: 3.19 µM
  TGI: 22.3 µM
OVCAR-4 ovarian
  GI50: 15 µM
  TGI: > 100 µM
OVCAR-5 ovarian
  GI50: 4.19 µM
  TGI: 67.1 µM
OVCAR-8 ovarian
  GI50: 3.55 µM
  TGI: 30.1 µM
PC-3 prostate
  GI50: 4.14 µM
  TGI: > 100 µM
RPMI-8226 leukemia
  GI50: 2.75 µM
  TGI: > 100 µM
RXF 393 renal
  GI50: 3.17 µM
  TGI: 17.1 µM
SF-268 CNS
  GI50: 6.46 µM
  TGI: > 100 µM
SF-295 CNS
  GI50: 3.01 µM
  TGI: 16.3 µM
SF-539 CNS
  GI50: 2.08 µM
  TGI: 5.47 µM
SK-MEL-2 melanoma
  GI50: 4.21 µM
  TGI: > 100 µM
SK-MEL-28 melanoma
  GI50: 6.5 µM
  TGI: > 100 µM
SK-MEL-5 melanoma
  GI50: 3.83 µM
  TGI: 16.4 µM
SK-OV-3 ovarian
  GI50: 6.05 µM
  TGI: > 100 µM
SN12C renal
  GI50: 3.62 µM
  TGI: 34.4 µM
SNB-19 CNS
  GI50: 3.78 µM
  TGI: 65 µM
SNB-75 CNS
  GI50: 1810 nM
  TGI: 9.27 µM
SR leukemia
  GI50: 13.2 µM
  TGI: > 100 µM
SW-620 colon
  GI50: 4.05 µM
  TGI: > 100 µM
T-47D breast
  GI50: > 100 µM
  TGI: > 100 µM
TK-10 renal
  GI50: 18.4 µM
  TGI: > 100 µM
U251 CNS
  GI50: 3.91 µM
  TGI: > 100 µM
UACC-257 melanoma
  GI50: 14.7 µM
  TGI: > 100 µM
UACC-62 melanoma
  GI50: 2.68 µM
  TGI: 33.5 µM
UO-31 renal
  GI50: 4.11 µM
  TGI: > 100 µM

## COc1ccc(-c2nc3ccc(-c4nnc(SCc5ccccc5)o4)cc3[nH]2)cc1OC
786-0 renal
  GI50: 5.88 µM
  TGI: 40.2 µM
A498 renal
  GI50: > 100 µM
  TGI: > 100 µM
A549 NSCLC
  GI50: 4.8 µM
  TGI: > 100 µM
BT-549 breast
  GI50: 21.3 µM
  TGI: > 100 µM
CAKI-1 renal
  GI50: > 100 µM
  TGI: > 100 µM
CCRF-CEM leukemia
  GI50: 16.7 µM
  TGI: > 100 µM
COLO 205 colon
  GI50: 38 µM
  TGI: > 100 µM
DU-145 prostate
  GI50: 9.71 µM
  TGI: > 100 µM
EKVX NSCLC
  GI50: 24.9 µM
  TGI: > 100 µM
HCC-2998 colon
  GI50: 57 µM
  TGI: > 100 µM
HCT-116 colon
  GI50: 8.32 µM
  TGI: > 100 µM
HCT-15 colon
  GI50: 13.8 µM
  TGI: > 100 µM
HL-60(TB) leukemia
  GI50: 57.5 µM
  TGI: > 100 µM
HOP-62 NSCLC
  GI50: 3.88 µM
  TGI: 23.2 µM
HOP-92 NSCLC
  GI50: 4.17 µM
  TGI: 94.6 µM
HS 578T breast
  GI50: 3.5 µM
  TGI: > 100 µM
HT29 colon
  GI50: 16.2 µM
  TGI: > 100 µM
IGROV1 ovarian
  GI50: 36 µM
  TGI: > 100 µM
K-562 leukemia
  GI50: 28.3 µM
  TGI: > 100 µM
KM12 colon
  GI50: > 100000 nM
  TGI: > 100 µM
LOX IMVI melanoma
  GI50: 4.74 µM
  TGI: > 100 µM
M14 melanoma
  GI50: 26.5 µM
  TGI: > 100 µM
MALME-3M melanoma
  GI50: 3.18 µM
  TGI: 11.5 µM
MCF7 breast
  GI50: 13.8 µM
  TGI: > 100 µM
MDA-MB-231 breast
  GI50: 4.28 µM
  TGI: 23.2 µM
MDA-MB-435
  GI50: 21 µM
  TGI: > 100 µM
MDA-MB-468 breast
  GI50: 7.89 µM
  TGI: 38.6 µM
MOLT-4 leukemia
  GI50: 27.8 µM
  TGI: > 100 µM
NCI-H23 lung
  GI50: 11 µM
  TGI: 79.9 µM
NCI-H460 lung
  GI50: 5.67 µM
  TGI: > 100 µM
NCI-H522 lung
  GI50: 23 µM
  TGI: > 100 µM
NCI/ADR-RES ovarian
  GI50: 11.1 µM
  TGI: > 100 µM
OVCAR-3 ovarian
  GI50: 4.73 µM
  TGI: 88.9 µM
OVCAR-4 ovarian
  GI50: 3.08 µM
  TGI: 12.3 µM
OVCAR-5 ovarian
  GI50: 32.4 µM
  TGI: > 100 µM
OVCAR-8 ovarian
  GI50: 5.6 µM
  TGI: > 100 µM
PC-3 prostate
  GI50: 19.8 µM
  TGI: > 100 µM
RPMI-8226 leukemia
  GI50: 21.7 µM
  TGI: > 100 µM
RXF 393 renal
  GI50: 3.6 µM
  TGI: > 100 µM
SF-268 CNS
  GI50: 32.7 µM
  TGI: > 100 µM
SF-295 CNS
  GI50: 5.54 µM
  TGI: > 100 µM
SF-539 CNS
  GI50: 6.54 µM
  TGI: > 100 µM
SK-MEL-2 melanoma
  GI50: > 100 µM
  TGI: > 100 µM
SK-MEL-28 melanoma
  GI50: 22 µM
  TGI: > 100 µM
SK-MEL-5 melanoma
  GI50: 7.88 µM
  TGI: > 100 µM
SK-OV-3 ovarian
  GI50: > 100 µM
  TGI: > 100 µM
SN12C renal
  GI50: 7.15 µM
  TGI: > 100 µM
SNB-19 CNS
  GI50: > 100 µM
  TGI: > 100 µM
SNB-75 CNS
  GI50: 2240 nM
  TGI: 7.27 µM
SR leukemia
  GI50: 6.45 µM
  TGI: > 100 µM
SW-620 colon
  GI50: 17 µM
  TGI: > 100 µM
T-47D breast
  GI50: 8.53 µM
  TGI: > 100 µM
TK-10 renal
  GI50: 8.62 µM
  TGI: 46.7 µM
U251 CNS
  GI50: 4.72 µM
  TGI: 20.4 µM
UACC-257 melanoma
  GI50: 56.4 µM
  TGI: > 100 µM
UACC-62 melanoma
  GI50: 7.2 µM
  TGI: 43.8 µM
UO-31 renal
  GI50: 57.4 µM
  TGI: > 100 µM
